# Measurements taken from US10669290B2, “Beta-lactamase inhibitors” (priority 2012, dated 2020).
# How the values were obtained:
# S. aureus MSSA-7 PC-1 = experiment: Broth microdilution MIC, S. aureus MSSA-7; type: cell-based; details: Staphylococcus aureus, partner antibiotic alone, S. aureus producing Class A penicillinase PC-1
# K.P. 156319 KPC-3 = experiment: Broth microdilution MIC, K. pneumoniae 156319; type: cell-based
# K.P. A-1797 KPC-2 VIM-4 [1] = experiment: Broth microdilution MIC, K. pneumoniae A-1797; type: cell-based; details: Klebsiella pneumoniae; partner antibiotic alone, K. pneumoniae expressing KPC-2 and VIM-4
# K.P. A-1797 KPC-2 VIM-4 [2] = experiment: Broth microdilution MIC, K. pneumoniae A-1797; type: cell-based; details: fixed meropenem 4 μg/mL, CAMHB, 16-20 hours 37° C.
# p99 AmpC = biological target: T1, p99 AmpC (Enterobacter cloacae, UniProt P05364); experiment: β-Lactamase inhibition, p99 AmpC (nitrocefin substrate); type: biochemical
# T1 construct: made in house; host or cells: E. coli BL21 (DE3)
# T1 sequence (P05364 21-381): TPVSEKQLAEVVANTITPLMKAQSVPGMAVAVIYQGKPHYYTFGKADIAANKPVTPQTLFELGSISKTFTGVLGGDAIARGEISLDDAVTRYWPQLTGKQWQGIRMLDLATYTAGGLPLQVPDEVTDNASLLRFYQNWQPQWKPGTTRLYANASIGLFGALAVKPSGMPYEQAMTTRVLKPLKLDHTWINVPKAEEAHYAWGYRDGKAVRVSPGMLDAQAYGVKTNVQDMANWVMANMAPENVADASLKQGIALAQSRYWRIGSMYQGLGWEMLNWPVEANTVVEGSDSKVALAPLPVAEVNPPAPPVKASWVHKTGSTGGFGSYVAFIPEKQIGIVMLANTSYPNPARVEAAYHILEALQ
# Procedure: (§1) For SHV-5, Kpc-2, p99AmpC and OXA-1 β-lactamases, E. coli BL21 (DE3) bacterial cells carrying expression plasmids (expressed as native untagged proteins) for the individual β-lactamases were grown in 1 L of Superbroth (Teknova Inc. Hollister, Calif.) supplemented with 100 μg/ml kanamycin selection and 1×5052 (0.5% glycerol, 0.05% glucose and 0.2% α-lactose) at 35° C. for 18-20 hours. Cells were harvested by centrifugation (4,000×g, 4° C., 20 min), resuspended in 50 ml of 10 mM HEPES pH 7.5 ( 1/20 of the initial volume). The cells were lysed by sonication (5 pulses of 45 seconds) at 45 W on ice. The lysates were clarified by centrifugation at 10,000×g for 40 minutes at 4° C. Samples were diluted 5-fold in 50 mM sodium acetate pH 5.0, stored overnight at 4° C., after which they were centrifuged at 10,000×g for 30 minutes to clarify, and filtered through 0.45 µm filters. The samples were loaded onto a 5 ml Capto S sepharose cation exchange column (GE Healthcare) pre-equilibrated with 50 mM sodium acetate pH 5.0. The column was washed with 5 column volumes of 50 mM sodium acetate pH 5.0 to wash out unbound protein and a linear gradient of NaCl (0 to 500 mM) was used to elute the protein (over 16 CV) from the column. Fractions were assayed for β-lactamase activity using Centa (Calbiochem, Gibbstown, N.J.) or Nitrocefin (EMD Millipore chemicals, Darmstadt, Germany) as a reporter β-lactamase substrate for activity in the isolated fractions. Active fractions were pooled, concentrated and further purified by gel filtration chromatography on a Superdex 75 prep grade gel filtration column (GE Healthcare, Piscataway, N.J.) pre-equilibrated in 50 mM Hepes pH 7.5, 150 mM NaCl. Active fractions were pooled concentrated, quantitated by BCA protein determination (Thermo Scientific, Rockford, Ill.), dialyzed into PBS and frozen at −80° C. in 20% glycerol until use.
# (§2) An equal volume of diluted enzyme stock was added, and the plates were incubated at 37° C. for 15 min. Nitrocefin was used as substrate for p99 AmpC, VIM-2 and OXA-1 and dispensed into each well at a final concentration of 100 μM. Absorbance at 486 nm was immediately monitored for 10 min using a Biotek Powerwave XS2 microplate spectrophotometer using the GEN5 software package (Biotek Instruments, Winooski Vt.). In an analogous fashion, imipenem was used as substrate for Kpc-2 and Cefotaxime was used for SHV-5, while changes in absorbance upon hydrolysis of the β-lactam ring were monitored at 300 nm and 260 nm respectively in UV-transparent 96-well microtiter assay plates. Maximum rates of hydrolysis were compared to those in control wells (without inhibitors), and percentages of enzyme inhibition were calculated for each concentration of inhibitor. The concentration of inhibitor needed to reduce the initial rate of hydrolysis of substrate by 50% (IC50) was calculated as the residual activity of β-lactamase at 486 nm using GraFit version 7 kinetics software package (Erithacus Software, Surrey, UK).
# Using the methodology described above, examples of the current invention were evaluated for their ability to inhibit β-lactamase enzymes from all four Ambler classifications (A through D). […] NT=Not tested.
# OXA-1 = biological target: T2, OXA-1 (Escherichia coli, UniProt P13661); experiment: β-Lactamase inhibition, OXA-1 (nitrocefin substrate); type: biochemical
# T2 construct: made in house; host or cells: E. coli BL21 (DE3)
# T2 sequence (P13661 26-276): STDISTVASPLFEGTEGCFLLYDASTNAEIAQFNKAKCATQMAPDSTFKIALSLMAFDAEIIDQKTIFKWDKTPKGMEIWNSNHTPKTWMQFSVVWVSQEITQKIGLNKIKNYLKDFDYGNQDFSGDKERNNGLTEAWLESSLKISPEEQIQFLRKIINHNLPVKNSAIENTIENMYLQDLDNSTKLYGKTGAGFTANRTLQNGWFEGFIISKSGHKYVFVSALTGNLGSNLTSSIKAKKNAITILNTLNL
# Procedure: as §1, with “The column was washed with 5 column volumes of 50 mM sodium acetate pH 5.0 to wash out unbound protein and a linear gradient of NaCl (0 to 500 mM) was used to elute the protein (over 16 CV) from the column. Fractions were assayed for β-lactamase activity using Centa (Calbiochem, Gibbstown, N.J.) or Nitrocefin (EMD Millipore chemicals, Darmstadt, Germany) as a reporter β-lactamase substrate for activity in the isolated fractions. Active fractions were pooled, concentrated and further purified by gel filtration chromatography on a Superdex 75 prep grade gel filtration column (GE Healthcare, Piscataway, N.J.) pre-equilibrated in 50 mM Hepes pH 7.5, 150 mM NaCl.” left out
# as §2, with “Nitrocefin was used as substrate for p99 AmpC, VIM-2 and OXA-1 and dispensed into each well at a final concentration of 100 μM.” left out, “The concentration of inhibitor needed to reduce the initial rate of hydrolysis of substrate by 50% (IC50) was calculated as the residual activity of β-lactamase at 486 nm using GraFit version 7 kinetics software package (Erithacus Software, Surrey, UK).” left out
# E. coli ESBL4 CTX-M-15 = experiment: Broth microdilution MIC, E. coli ESBL4; type: cell-based; details: fixed ceftazidime 4 μg/mL, CAMHB, 16-20 hours 37° C.
# Method in brief: (§3)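 Visual MIC reading after 16-20 hours at 37° C gives the potentiation value. The compound ranged from 32 μg/mL down to 0.25 μg/ml in CAMHB, combined with a β-lactam held at a final 4 μg/ml, and wells received a CLSI-standard inoculum.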
# P. aerug. Ps296 VIM-2 = experiment: Broth microdilution MIC, P. aeruginosa Ps296; type: cell-based; details: fixed meropenem 4 μg/mL, CAMHB, 16-20 hours 37° C.
# Method in brief: as §3
# E. cl 144200 p99 AmpC = experiment: Broth microdilution MIC, E. cloacae 144200; type: cell-based; details: fixed ceftazidime 4 μg/mL, CAMHB, 16-20 hours 37° C.
# Method in brief: as §3
# SHV-5 = biological target: T3, SHV-5 (Klebsiella pneumoniae, UniProt P0A3M1); experiment: β-Lactamase inhibition, SHV-5 (cefotaxime substrate); type: biochemical
# T3 construct: made in house; host or cells: E. coli BL21 (DE3)
# T3 sequence (P0A3M1 22-286): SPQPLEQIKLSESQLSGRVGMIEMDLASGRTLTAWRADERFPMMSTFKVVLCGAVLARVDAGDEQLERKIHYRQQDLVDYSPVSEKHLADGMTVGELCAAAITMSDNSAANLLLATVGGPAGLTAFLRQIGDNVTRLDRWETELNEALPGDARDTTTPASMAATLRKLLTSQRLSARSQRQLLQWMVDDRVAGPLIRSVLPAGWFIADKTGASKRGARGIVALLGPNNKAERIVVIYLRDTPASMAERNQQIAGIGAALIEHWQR
# Procedure: as §1, with “The column was washed with 5 column volumes of 50 mM sodium acetate pH 5.0 to wash out unbound protein and a linear gradient of NaCl (0 to 500 mM) was used to elute the protein (over 16 CV) from the column. Fractions were assayed for β-lactamase activity using Centa (Calbiochem, Gibbstown, N.J.) or Nitrocefin (EMD Millipore chemicals, Darmstadt, Germany) as a reporter β-lactamase substrate for activity in the isolated fractions. Active fractions were pooled, concentrated and further purified by gel filtration chromatography on a Superdex 75 prep grade gel filtration column (GE Healthcare, Piscataway, N.J.) pre-equilibrated in 50 mM Hepes pH 7.5, 150 mM NaCl.” left out
# as §2, with “Nitrocefin was used as substrate for p99 AmpC, VIM-2 and OXA-1 and dispensed into each well at a final concentration of 100 μM.” left out, “The concentration of inhibitor needed to reduce the initial rate of hydrolysis of substrate by 50% (IC50) was calculated as the residual activity of β-lactamase at 486 nm using GraFit version 7 kinetics software package (Erithacus Software, Surrey, UK).” left out
# KPC-2 = biological target: T4, KPC-2 (Klebsiella pneumoniae, UniProt Q9F663); experiment: β-Lactamase inhibition, KPC-2 (imipenem substrate); type: biochemical
# T4 construct: made in house; host or cells: E. coli BL21 (DE3)
# T4 sequence (Q9F663 25-293 limits assumed): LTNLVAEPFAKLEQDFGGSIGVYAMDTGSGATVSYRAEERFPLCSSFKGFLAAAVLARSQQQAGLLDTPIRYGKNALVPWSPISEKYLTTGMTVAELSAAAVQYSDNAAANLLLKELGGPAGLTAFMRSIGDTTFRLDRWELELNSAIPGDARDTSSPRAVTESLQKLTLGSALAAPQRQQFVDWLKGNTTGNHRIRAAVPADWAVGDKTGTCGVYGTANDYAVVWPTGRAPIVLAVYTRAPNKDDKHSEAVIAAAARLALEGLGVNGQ
# Procedure: as §1, with “The column was washed with 5 column volumes of 50 mM sodium acetate pH 5.0 to wash out unbound protein and a linear gradient of NaCl (0 to 500 mM) was used to elute the protein (over 16 CV) from the column. Fractions were assayed for β-lactamase activity using Centa (Calbiochem, Gibbstown, N.J.) or Nitrocefin (EMD Millipore chemicals, Darmstadt, Germany) as a reporter β-lactamase substrate for activity in the isolated fractions. Active fractions were pooled, concentrated and further purified by gel filtration chromatography on a Superdex 75 prep grade gel filtration column (GE Healthcare, Piscataway, N.J.) pre-equilibrated in 50 mM Hepes pH 7.5, 150 mM NaCl.” left out
# as §2, with “Nitrocefin was used as substrate for p99 AmpC, VIM-2 and OXA-1 and dispensed into each well at a final concentration of 100 μM.” left out, “The concentration of inhibitor needed to reduce the initial rate of hydrolysis of substrate by 50% (IC50) was calculated as the residual activity of β-lactamase at 486 nm using GraFit version 7 kinetics software package (Erithacus Software, Surrey, UK).” left out
# VIM-2 = biological target: T5, VIM-2 (Escherichia coli, UniProt Q5U7L7); experiment: β-Lactamase inhibition, VIM-2 (nitrocefin substrate); type: biochemical
# T5 construct: made in house; host or cells: E. coli BL21 (DE3)
# Procedure: as §1, with “The column was washed with 5 column volumes of 50 mM sodium acetate pH 5.0 to wash out unbound protein and a linear gradient of NaCl (0 to 500 mM) was used to elute the protein (over 16 CV) from the column. Fractions were assayed for β-lactamase activity using Centa (Calbiochem, Gibbstown, N.J.) or Nitrocefin (EMD Millipore chemicals, Darmstadt, Germany) as a reporter β-lactamase substrate for activity in the isolated fractions. Active fractions were pooled, concentrated and further purified by gel filtration chromatography on a Superdex 75 prep grade gel filtration column (GE Healthcare, Piscataway, N.J.) pre-equilibrated in 50 mM Hepes pH 7.5, 150 mM NaCl.” left out, “use. […]” for “use.”
# as §2, with “Nitrocefin was used as substrate for p99 AmpC, VIM-2 and OXA-1 and dispensed into each well at a final concentration of 100 μM.” left out, “The concentration of inhibitor needed to reduce the initial rate of hydrolysis of substrate by 50% (IC50) was calculated as the residual activity of β-lactamase at 486 nm using GraFit version 7 kinetics software package (Erithacus Software, Surrey, UK).” left out
smiles,measurement,setting,value
CCN1CCN(C(=O)N[C@@H](C(=O)N[C@@H]2C(=O)N3[C@@H]2SC(C)(C)[C@@H]3C(=O)O)c2ccccc2)C(=O)C1=O [Piperacillin],MIC,S. aureus MSSA-7 PC-1,64 µg/mL
"C[C@@H](O)[C@H]1C(=O)N2C(C(=O)O)=C(S[C@@H]3CN[C@H](C(=O)N(C)C)C3)[C@H](C)[C@H]12 [Meropenem, reference compound]",MIC,"K.P. 156319 KPC-3; Klebsiella pneumoniae, read-out: MIC alone",> 128 µg/mL
same,MIC,K.P. A-1797 KPC-2 VIM-4 [1],64 µg/mL
"NC[C@@H]1CC[C@@H](CC(=O)N[C@H]2Cc3cccc(C(=O)O)c3OB2O)C[C@H]1CN (mixture of isomers) [Example 18, (3R)-3-[[2-[(1S,3S,4S)-3,4-bis(aminomethyl)cyclohexyl]acetyl]amino]-2-hydroxy-3,4-dihydro-1,2-benzoxaborinine-8-carboxylic acid and (3R)-3-[[2-[(1R,3R,4R)-3,4-bis(aminomethyl)cyclohexyl]acetyl]amino]-2-hydroxy-3,4-dihydro-1,2-benzoxaborinine-8-carboxylic acid]","MIC of exemplary compounds in presence of fixed β-lactams, Fixed Mero, K.P. A-1797 KPC-2 VIM-4",K.P. A-1797 KPC-2 VIM-4 [2],B (B represents the MIC in the presence of between 8 and 32 μg/mL of a β-lactamase inhibitor of exemplary compounds)
same,IC50,p99 AmpC,< 100 nM
same,IC50,OXA-1,< 100 nM
same,"MIC of exemplary compounds in presence of fixed β-lactams, Fixed CAZ, E. coli ESBL4 CTX-M-15",E. coli ESBL4 CTX-M-15,C (C represents the MIC in the presence of <4 μg/mL of a β-lactamase inhibitor of exemplary compounds)
same,"MIC of exemplary compounds in presence of fixed β-lactams, Fixed Mero, P. aerug. Ps296 VIM-2",P. aerug. Ps296 VIM-2,C (C represents the MIC in the presence of <4 μg/mL of a β-lactamase inhibitor of exemplary compounds)
same,"MIC of exemplary compounds in presence of fixed β-lactams, Fixed Mero, K.P. 156319 KPC-3","K.P. 156319 KPC-3; fixed meropenem 4 μg/mL, CAMHB, 16-20 hours 37° C.",C (C represents the MIC in the presence of <4 μg/mL of a β-lactamase inhibitor of exemplary compounds)
same,"MIC of exemplary compounds in presence of fixed β-lactams, Fixed CAZ, E. cl 144200 p99 AmpC",E. cl 144200 p99 AmpC,C (C represents the MIC in the presence of <4 μg/mL of a β-lactamase inhibitor of exemplary compounds)
same,IC50,SHV-5,< 100 nM
same,IC50,KPC-2,< 100 nM
same,IC50,VIM-2,< 100 nM
